The conditions of data set [1]: 25° C.; cited from earlier work.
Data set [2] can be described thus: Physical properties of perfluoro(tert-butylcyclohexane). It is filed as physicochemical. An excerpt: Physical properties of perfluoro(tert-butylcyclohexane) are as follows: […]
For the next data set, the system named is skin tissue. Kind of data set: Measuring oxygen tension in tissue with fluorescent marker (Example 4). As to conditions: fluorescent marker injected into skin area treated with PFC or PFC gel. It is filed as in vivo. The method, then:
A material which binds oxygen (fluorescent marker) is injected into skin tissue. The combination is fluorescent and the more oxygen that is present, the stronger the fluorescent signal. (representing the oxygen tension in the tissue). First it is determined that fluorescence chemistry is unaffected by the PFCs and poloxamers. Then as a control, the fluorescent marker is injected into the skin, and oxygen tension is obtained. Finally, the same area is treated with a PFC or a PFC gel and oxygen tension is again obtained.

A short description of data set [3]: Gas solubility / Henry's Law sorption of oxygen and CO2 in the liquid. Format: physicochemical. The procedure:
The amount of dissolved oxygen in the liquid is measured after equilibration with a gas. The partial pressure of the gas (here, oxygen) is varied. The partial pressure of oxygen in air is 0.21 atm.
The amount of oxygen dissolved in each when the liquids are at equilibrium with the oxygen in the air can be found from the Henry's Law sorption isotherms for the liquids sketched in FIG. 2.
When the solubility of a gas in a liquid is measured, the solubility is nearly always a linear function of the partial pressure of the gas.

Data set [4] can be described thus: Water solubility and lipophilicity (descriptive). Format: physicochemical.
The mark [5] stands for this setting: used for conversion to weight basis.

Read-outs that look alike come from different tables or passages of the source.

The term density denotes mass per unit of volume.

As for water, the “Henry's law constant for oxygen” value in data set [1] is “about 8.3 mg O2/L/atm”. In data set [2] (setting [5]), this compound gave a density of 1000 g/L.
As for “perfluoroisopropyldecalin [APF-200, reference compound]”, the “oxygen tension in tissue” value in the data set with skin tissue was “substantially increases local oxygen tension in the tissue”.
For `FC(F)(F)C(C(F)(F)F)(C(F)(F)F)C1(F)C(F)(F)C(F)(F)C(F)(F)C(F)(F)C1(F)F` [perfluoro(tert-butylcyclohexane)], the “Henry's law constant for oxygen” value in data set [1] was “about 600 mg O2/L/atm”. The “oxygen tension in tissue” value with skin tissue is given as “substantially increases local oxygen tension in the tissue”. Besides, in data set [2], the “Kinematic Viscosity (cP)” value came out at 5.378 cP and the “density” value turned out to be 1970 g/L. The “Vapor Pressure (mmHg) @ 25° C.” value in data set [2] (25° C.) is 3.8 mmHg. Moreover, the “Vapor Pressure (mmHg) @ 37° C.” value in data set [2] (37° C.) is reported as 4.4 mmHg. The density in data set [2] (setting [5]) was found to be 1966 g/L. Besides, in data set [3], the CO2 carried was 196 mL of CO2 per 100 mL of PFC, the oxygen carried entry is on record as “about 43 mL of oxygen per 100 mL of PFC” and the “oxygen held in contact with air” value is reported as “about 126 mg O2”. In addition, in data set [4], the “lipophilicity” value is reported as “non-lipophilic” and the “solubility in water” value was “non-water soluble”. In addition, the “lipophilicity” value in data set [4] (at body temperature) is reported as “only slightly lipophilic”. Moreover, the “lipophilicity” value in data set [4] (at room temperature) was “not lipophilic”.
